Values quoted from earlier work, collected in patent US5721209A, “Iron chelator and inhibitor of iron-mediated oxidant injury” (The Regents of the University of California, priority 1995, dated 1998).
Like-named read-outs stand apart in the source and are kept apart here.

Legend:
[1] = prior known iron chelator
[2] = according to Macham
ischemic myocardium = conditions: for prevention of reperfusion injury / myocardial infarct size: administered prior to reperfusion / prior to occurrence of the myocardial infarct
neuroblastoma cells = conditions: removal of iron; growth of normal cells not similarly affected

O=C(O)CN(CCN(CC(=O)O)CC(=O)O)CC(=O)O [EDTA]
prevention of (.cndot.OH) production by the Fenton reaction [1]: do not prevent (.cndot.OH) production by the Fenton reaction

mycobactin
solubility [2]: water insoluble

CC(=O)N(O)CCCCCNC(=O)CCC(=O)N(O)CCCCCNC(=O)CCC(=O)N(O)CCCCCN [deferoxamine]
prevention of reperfusion injury (ischemic myocardium; administered at or after the onset of reperfusion): ineffective
prevention of reperfusion injury / myocardial infarct size (ischemic myocardium): prevents injury and reduces myocardial infarct size
prevention of reperfusion injury / myocardial infarct size (ischemic myocardium; listed as Desferoxamine): effective
growth of neuroblastoma cells (neuroblastoma cells): negatively affected
